Experimental findings from ChEMBL document CHEMBL5055626 (J Med Chem, 2021) are described below.

Assay [1] can be described thus: Antagonist activity at rat nAChR alpha7 Q141H mutant expressed in xenopus oocytes assessed as inhibition of Ach- induced response at -70 mV holding potential preincubated for 5 mins followed by Ach stimulation by voltage-clamp based electrophysiological method. It is filed as cell-based. As to conditions: Oocyte.
Assay [2] has as its target Neuronal acetylcholine receptor; alpha4/beta4 (Rattus norvegicus) (UniProt P09483+P12392). Kind of assay: Antagonist activity at rat alpha4beta4 nAChR expressed in xenopus oocytes assessed as inhibition of Ach- induced response at 10 uM at -70 mV holding potential preincubated for 5 mins followed by Ach stimulation by voltage-clamp based electrophysiological method. The assay is classed as cell-based. As to conditions: Oocyte.

The target in assay [3] is Neuronal acetylcholine receptor; alpha4/beta2 (Rattus norvegicus) (UniProt P09483+P12390). As to the kind of experiment: Antagonist activity at rat alpha4beta2 nAChR expressed in xenopus oocytes assessed as inhibition of Ach- induced response at 10 uM at -70 mV holding potential preincubated for 5 mins followed by Ach stimulation by voltage-clamp based electrophysiological method. The assay is classed as cell-based. The following applies: Oocyte.

The target of assay [4] is Neuronal acetylcholine receptor; alpha3/beta2 (Rattus norvegicus, UniProt P04757+P12390). Kind of assay: Antagonist activity at rat alpha3beta2 nAChR expressed in xenopus oocytes assessed as inhibition of Ach- induced response at -70 mV holding potential preincubated for 5 mins followed by Ach stimulation by voltage-clamp based electrophysiological method. The assay is classed as cell-based, Oocyte.
Chain of Neuronal acetylcholine receptor; alpha3/beta2 (P04757 whole entry): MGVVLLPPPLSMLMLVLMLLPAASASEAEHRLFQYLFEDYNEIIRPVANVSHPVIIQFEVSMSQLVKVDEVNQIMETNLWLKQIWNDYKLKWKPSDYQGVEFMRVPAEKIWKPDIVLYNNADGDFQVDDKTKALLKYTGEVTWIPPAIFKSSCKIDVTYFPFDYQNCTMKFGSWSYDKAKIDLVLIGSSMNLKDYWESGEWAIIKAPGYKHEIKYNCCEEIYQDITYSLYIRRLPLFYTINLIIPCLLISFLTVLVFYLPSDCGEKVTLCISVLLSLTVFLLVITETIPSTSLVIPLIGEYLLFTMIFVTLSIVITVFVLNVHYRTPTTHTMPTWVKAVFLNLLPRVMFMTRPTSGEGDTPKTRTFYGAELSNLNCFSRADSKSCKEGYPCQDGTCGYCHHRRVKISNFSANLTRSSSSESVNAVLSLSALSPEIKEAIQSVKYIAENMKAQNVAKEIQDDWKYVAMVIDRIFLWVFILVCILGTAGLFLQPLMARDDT
Chain of Neuronal acetylcholine receptor; alpha3/beta2 (P12390 whole entry): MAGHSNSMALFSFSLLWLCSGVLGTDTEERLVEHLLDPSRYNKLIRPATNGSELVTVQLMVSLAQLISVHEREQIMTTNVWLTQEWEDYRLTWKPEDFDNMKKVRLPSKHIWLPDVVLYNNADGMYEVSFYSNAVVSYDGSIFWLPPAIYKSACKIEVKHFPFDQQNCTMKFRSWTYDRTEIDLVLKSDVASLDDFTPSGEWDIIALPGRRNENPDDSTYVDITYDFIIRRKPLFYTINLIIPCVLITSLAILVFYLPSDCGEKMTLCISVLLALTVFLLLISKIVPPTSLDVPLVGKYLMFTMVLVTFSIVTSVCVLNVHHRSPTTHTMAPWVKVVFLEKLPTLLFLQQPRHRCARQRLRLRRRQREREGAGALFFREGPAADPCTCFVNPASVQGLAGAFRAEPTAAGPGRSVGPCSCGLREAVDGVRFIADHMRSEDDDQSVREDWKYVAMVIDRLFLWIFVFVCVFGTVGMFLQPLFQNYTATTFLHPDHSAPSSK

Assay [5] in a line: Antagonist activity at human nAChR alpha7 S184N mutant expressed in xenopus oocytes assessed as inhibition of Ach- induced response at -70 mV holding potential preincubated for 5 mins followed by Ach stimulation by voltage-clamp based electrophysiological method. As to conditions: Oocyte. It is filed as cell-based.
Assay [6] is described as follows: Antagonist activity at rat nAChR alpha7 M177V mutant expressed in xenopus oocytes assessed as inhibition of Ach- induced response at -70 mV holding potential preincubated for 5 mins followed by Ach stimulation by voltage-clamp based electrophysiological method. It is filed as cell-based. As to conditions: Oocyte.
Assay [7] concerns the target Neuronal acetylcholine receptor; alpha2/beta2 (Rattus norvegicus) (UniProt P12389+P12390). Kind of assay: Antagonist activity at rat alpha2beta2 nAChR expressed in xenopus oocytes assessed as inhibition of Ach- induced response at 10 uM at -70 mV holding potential preincubated for 5 mins followed by Ach stimulation by voltage-clamp based electrophysiological method. It is filed as cell-based. As to conditions: Oocyte.

Activity calls are given as the source filed them. The calls are words filed in the database; no cut-off is given here. Where a SMILES comes first, the peptide text is derived from it. Bridges are numbered along the chain shown (N, C = ends).

In general, IC50 refers to the concentration that gives 50% inhibition. Regarding `C[C@@H]1NC(=O)[C@@H]2CSSC[C@H](NC(=O)CN)C(=O)N[C@@H](CSSC[C@@H](C(N)=O)NC(=O)[C@H](Cc3cnc[nH]3)NC(=O)[C@H](CCC(=O)O)NC(=O)[C@H](Cc3cnc[nH]3)NC1=O)C(=O)N[C@@H](CO)C(=O)N[C@@H](CC(N)=O)C(=O)N1CCC[C@H]1C(=O)N1CCC[C@H]1C(=O)N2` (H-GCCSNPPCAHEHC-NH2; disulfide 2-8, 3-13), the IC50 in assay [1] is 300 nM; in assay [4], 350 nM; in assay [5], 850 nM; in assay [6] it was 160 nM. Moreover, the inhibition result in assay [2], in assay [3] and in assay [7] was “inactive” throughout.
